From paper PMC10484922, “Discovery of a selective and biologically active low-molecular weight antagonist of human interleukin-1β” (Nature Communications, 2023)
Where “and” joins values, the source holds several entries; their conditions need not be identical. Equal entries are not always repeated. Where two headings read alike, the source gives them in different places.

How the values were obtained:
[1] = test system: normal human dermal fibroblasts stimulated with hIL-1β; assay: Human fibroblast IL-6 release assay, hIL-1β stimulated; assay type: cell-based; parameters: IL-6, average / inhibition, replicates of EXP1, EXP2, EXP3 / inhibition, Mean / IL-1beta (mean, SD): mean readout (IL-6 release): unit not given here; conditions: for IL-6, average / IL-6, curve fit: per experiment
Procedure: We used HEK-Blue™ IL-1β cells that respond specifically to IL-1 (# hkb-il1b, InvivoGen). These cells can detect IL-1α and IL-1β, as these cytokines bind to the same receptor, IL-1R1. They express a Seap reporter gene under the control of the IFN-β minimal promoter fused to five NF-kappaB and five AP-1 binding sites. Thirty microliters (300,000 cells/ml) per well of a 384-well plate were plated overnight. Cells were then stimulated with graded concentrations of cytokines (hIL-1α or hIL-1β) in the absence or presence of canakinumab (Ilaris®, ILARI LYVI 150MG 22GLW.012, batch U003 0409)[22], anakinra (Kineret®, 100 mg/0.67 ml injectable solution, Sobi)[23], or compound (S)-2 (compounds were pre-mixed for 1 h with the cytokine prior to addition to cells) and further incubated overnight before assessment of Seap activity.
Normal human dermal fibroblasts (NHDF) from Clonetics^TM (LONZA, Cat # CC-2509 (NHDF-Neo), Lot # 0000234242, used at passage ≤14) were seeded at a density of 5000 cells/well in 100 μL of culture medium using 96-well plates (flat bottom, TCT). Treatment with cytokines/compounds was performed as described above. Cells were incubated for another 6 h and were subsequently spun down (320g/3 min). IL-6 was measured in the supernatant by ELISA (BioLegend, # 430503) or HTRF (Cisbio, #62HIL06PEH).

IL-1β = IL-1β (Homo sapiens, UniProt P01584); assay: SPR binding of compounds to immobilized hIL-1β; parameters: Mature hIL-1β was expressed in Escherichia coli; made in house; host or cells: Escherichia coli BL21 (DE3), pET17b
Procedure: All SPR experiments were performed with an SPR-32 instrument (Bruker Daltonics SPR, Hamburg, Germany). SPR chips were from XanTec bioanalytics GmbH (Düsseldorf, Germany).
C-terminally avi-tagged hIL-1β protein was immobilized onto a SAHC200M chip with a neutravidin-coated surface. Immobilization was performed with a protein injection of 0.02 mg/ml IL-1β diluted in PBS pH 7.5 (Gibco 70011-036, 10×), 0.05% Tween-20 for 5 min at 10 μl/min. The running buffer for binding studies of compounds was PBS pH 7.4, 0.05% Tween-20, and 2% DMSO. For the correction of small DMSO variations between samples, injections of 6 solvent samples ranging from 1% to 3% DMSO were run. Compound measurements were performed in MICK mode (multiple injection cycles kinetic) with a dose–response of 10 concentrations. Dissociation constants for compounds (KD) were obtained by determining steady-state fit that followed the 1:1 Langmuir model.
Data analysis was performed with the Sierra Analyzer 3.4.0 software from Bruker. Signal intensities were corrected for nonspecific binding to the surface by subtracting intensities from the reference surface from those of the hIL-1β surfaces (first reference subtraction) and by subtracting the buffer injection (second reference subtraction). KD values were carried out by determining a reporting point close to the end of the injection, used for steady-state fit, in addition to a kinetic fit delivering kon- and koff-values; both fitting models followed the 1:1 Langmuir equation.
Supplementary Figure 3. De termination of binding af fi nit ie s for se l ec ted ana l ogues of 1 by SPR. a - d Gr ap hs of exemplary experimen ts are given , where the sat urat ion of hI L-1b immobil ized on a chip was monitored at various concentrations of compound 3, 12, 10, and 11, respectively. Th e saturati on reached at equ ilibri um (insert) was plo tt ed versus the admini stered concentration and the equ ilibri um bin ding constant was derived from a non-li near lea st square fitting routine. e equ ilibri um and f kinetic bin ding of (S)-2 to IL-1b (kon = 1. 15 x 105 M-1 s-1 and koff = 0. 12 s-1).

[2] = Homo sapiens, Fibroblast, 6 h, human dermal fibroblasts, hIL-1β, 6 h, read-out: IL-6 release IC50
[3] = Homo sapiens, Fibroblast, source data, read-out: IL-6 IC50, individual experiments
[4] = source data, read-out: SPR Kd, Mean
[5] = source data, read-out: SPR Kd, individual experiments (Exp1-5)
[6] = steady-state fit, 1:1 Langmuir, read-out: SPR KD

Sequence of IL-1β (P01584 117-269): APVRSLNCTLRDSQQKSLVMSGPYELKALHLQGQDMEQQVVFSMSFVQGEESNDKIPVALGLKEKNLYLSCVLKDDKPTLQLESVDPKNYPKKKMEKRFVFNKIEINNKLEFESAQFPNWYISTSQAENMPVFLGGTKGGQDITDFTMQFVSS

Compound	IL-6, average ([1]; 0.3 uM)	IL-6, curve fit ([1]; 0.3 uM)	IL-6, average ([1]; 1.2 uM)	IL-6, curve fit ([1]; 1.2 uM)	IL-6, average ([1]; 3 uM)	IL-6, curve fit ([1]; 3 uM)	IL-6, average ([1]; 12 uM)	IL-6, curve fit ([1]; 12 uM)	IL-6, average ([1]; 33 uM (Cpd 10/11 series))	IL-6, curve fit ([1]; 33 uM (Cpd 10/11 series))	IL-6, average ([1]; 99 uM)	IL-6, curve fit ([1]; 99 uM)	IL-6, average ([1]; 300 uM)	IL-6, curve fit ([1]; 300 uM)	IC50 [1, 2]	IC50 [1, 3]	Kd (IL-1β; [4])	Kd (IL-1β; [5])	Kd (IL-1β; [6])	IC50 ([1]; source data, read-out: IL-6 IC50, individual experiments)
Cc1ccc2c(c1)NC(=O)C2(O)c1cc(-c2ccc(C(=O)O)cc2)ccc1O (centres unmarked) [Compound 10]	4.183	2.28E-12	7.793	3.34E-09	7.203	4.25E-07	4.254	0.0006137	6.569	0.1292	29.3257	29.6479	100.311	99.3118	117 µM	117 µM	43.6 µM	58 µM and 63 µM and 27 µM and 26 µM	44 ± 17 µM	–
O=C(O)c1ccccc1-c1ccc(O)c(C2(O)C(=O)Nc3cc(Cl)ccc32)c1 (centres unmarked) [Compound 11]	–	–	–	–	–	–	–	–	–	–	38.1953 and 26.9144	38.6393 and 27.5847	100.608 and 103.181	97.9064 and 99.9483	112 ± 1 µM	111 µM	31.8 µM	34 µM and 37 µM and 36 µM and 26.3 µM and 25.7 µM	32 ± 5 µM	113 µM
